In patent US20240316187A1, “PROTEINS IDENTIFIED FROM BARN DUST EXTRACT FOR THE PREVENTION AND TREATMENT OF DISEASES” (Helmholtz Zentrum München - Deutsches Forschungszentrum für …, priority 2021, published 2024):
“Also recorded” adds a separate entry of the source.

T1: 15N-bOBP (Bos taurus, UniProt P07435)
T1 construct: 6xHis (N, cleaved yes); Thioredoxin (Trx) (N, cleaved yes); TEV cleavage site (N, cleaved yes); made in house; host or cells: E. coli BL21 (M9 minimal medium for 15N labelling)
T1 sequence (P07435 with tags, fused parts or gaps): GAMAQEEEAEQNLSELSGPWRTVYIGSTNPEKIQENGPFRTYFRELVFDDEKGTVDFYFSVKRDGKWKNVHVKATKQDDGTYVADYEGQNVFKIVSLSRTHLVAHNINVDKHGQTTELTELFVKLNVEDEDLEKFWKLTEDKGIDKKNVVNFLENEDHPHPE


Assays:
[1] = system: OVA pulsed BMDCs cocultured with OT-II CD4 T cells; assay: DC/T-cell interaction assay; type: cell-based, mouse; conditions: pre-treatment of BMDCs (two treatments), LPS stimulation, FIG. 8
Procedure: Effect of lipoprotein candidates on DC T-cell interaction: OVA pulsed BMDCs enhanced OT-II CD4 T cell number (Medium), which was prevented by pre-treatment of BMDCs with, Bos d2+FA and OPB+FA. CD4+ count: For each sample 10400 counting beads were added to tube and 5000 beads were counted for recording. CD4+ count indicates the amount of CD4+ cells contained in the volume needed to count 5000 beads. (FA: (E)-12-oxoheptadec-10-enaic acid).
DCs are professional antigen presenting cells crucial for the priming of CD4 T cells in asthma and allergy. The mouse primary bone marrow derived DCs (BMDCs) were utilized to evaluate the ability of the test substances to modulate their activation. DC activation is monitored their ability to regulate the differentiation and proliferation of OVA-specific CD4 T cells (OT-II) following DC pulsing with the OVA peptide.
For this assay, bone marrow derived DCs are isolated from C57B16 mice and put into culture. […]
Isolate bone marrow from wild-type C57BL/6 mouse and seed cells in 10 ml Petri dishes in 10 ml volume (2 million cells/dish) containing 20 ng/ml rmGM-CSF. […] Cells were then collected and counted with the help of counting beads and seeded in V bottom 96 well plates (10000 cells/well) and pulsed with OVA peptide (323-339) for 3 hours. […] 20000 stained T Cells were cocultured with DCs for […], and T Cells were then analyzed with flow cytometry.

human TLR2 = biological target: T2, human TLR2 (Homo sapiens, UniProt O60603); assay: Activation of TLR-2, NFkB induction in HEK-Blue-hTLR2 cells (SEAP reporter); type: cell-based; conditions: human TLR2 transfected HEK cells; positive control Pam3CSK4; FIG. 5
T2 construct: host or cells: HEK293 (HEK-Blue-hTLR2)
Source text: NKfB induction in HEK-hTLR2. Dotted line: PBS/DMSO (negative control); Pam3CSK4=positive control; Farm dust (Hec 20)=Cow shed dust extract>10 kDa autoclaved; Bosd2+FA=His-Trx-Bos d2+€-12-oxoheptadec-10-enaic acid; OBP+FA=bOBP+€-12-oxoheptadec-10-enaic acid; OBP=bOBP; FA=€-12-oxoheptadec-10-enaic acid.
HEK-Blue™-hTLR2 cells (InvivoGen) are obtained by co-transfection of the human TLR2 and SEAP (secreted embryonic alkaline phosphatase) genes into HEK293 cells. The SEAP reporter gene is placed under the control of the IFN-β minimal promoter fused to five NF-κB and AP-1-binding sites. Additionally, the CD14 co-receptor gene was transfected into these cells to enhance the TLR2 response. Stimulation with a TLR2 ligand activates NF-κB and AP-1, which in turn induce the production of SEAP. Levels of SEAP are determined with HEK-Blue™ Detection, a cell culture medium that allows for real-time detection of SEAP.

16HBE cells = assay: TEER assay, epithelial barrier function; type: cell-based; conditions: 20 μg/ml, 24 hours after treatment; compared with cow SDE at 200 μg/ml; FIG. 6
Procedure: TEER Assay: 16HBE: untreated cells; Farm dust (Hec 20)=Cow shed dust extract>10 kDa autoclaved, 200 μg/ml; Bosd2+FA=His-Trx-Bos d2+(E)-12-oxoheptadec-10-enaic acid, 20 μg/ml; OBP+FA=bOBP+(E)-12-oxoheptadec-10-enaic acid, 20 μg/ml.
To examine the effect of the Lipoproteins Bos d2+FA and OBP+FA on the epithelial barrier function as measured by transepithelial electrical resistance (TEER). 16HBE (100.000 (1×10*5)) cells were seeded on transwell inserts in […] medium (MEM with Earle's salt, 10% FBS (during cultivation only, during assay no FBS), 1% L-Glutamine, 1% Penicillin/Streptomycin). After 24 hours of culture, cells were treated with the indicated compounds, and 24 hours after treatment, TEER values were determined using an EVOM2 epithelial voltohmmeter (World Precision Instruments). Cow SDE was used at 200 μg/ml, all other compounds were used at 20 μg/ml.

[2] = system: Balb/c mice sensitized with OVA; assay: OVA allergic asthma model, intranasal application of test substance; type: in vivo, mouse; conditions: for Bronchoalveolar lavage (BAL) eosinophil numbers / AHR to increasing doses of methacholine: 12 intranasal applications d0-d26, analysis day 28; for Bronchoalveolar lavage (BAL) eosinophil numbers: FIG. 10; for AHR to increasing doses of methacholine: FlexiVent, FIG. 11
Procedure: Control mice were sham sensitized to PBS. Error bars reflect SEM. P values reflect one-way ANOVA, *: p value<0.05, **: p value<0.01; (FA: (E)-12-oxoheptadec-10-enaic acid).
Control mice were sham sensitized to PBS. Error bars reflect SEM. (FA: (E)-12-oxoheptadec-10-enaic acid).
Balb/c mice were first be sensitized with 10 μg OVA in Alum i.p. on day 0, 7 and 14. Three consecutive intranasal challenges with 100 μg OVA on day 25, 26 and 27, with analysis being undertaken on day 28, follows. From d0-d26 there were 12 consecutive intranasal applications of test substance. Asthma pathogenesis was assessed using methacholine lung function challenge to examine AHR as undertaken in allergic asthma patients. Furthermore, pathological manifestations such as eosinophilia was assessed. • Sensitzation: 10 μg valbumin (OVA Grade VI, Sigma, Stainheim, D) dissolved in 100 μl PBS on days 0, 7 and 14 of the assay protocol together with 100 μl (1 mg) of the adjuvant aluminium hydroxyde (Al(OH)3) (Inject Alum, Pierce, USA). • Challenge: OVA Grade V in 100 μg/mouse in 25 μl (concentration: 4 mg/ml)
Eosiniphilnumbers in the Bronchoalveolar lavage (BAL) are shown in FIG. 10. • Airway Hyperresponsivenes (AHR): Dynamic resistance and compliance (in response to increasing doses of MCh) FlexiVent results are shown in FIG. 11.

15N-bOBP = biological target: T1, 15N-bOBP; assay: NMR binding studies (1H,15N-HSQC titration); conditions: 200 μM 15N-bOBP alone or in presence of 1 mM and 2 mM fatty acid, pH 6.5, 25° C.
Procedure: NMR binding studies. Overlay of ^1H, […] spectra of ^15N-bOBP alone and in presence of 5- and 10-fold excess of (E)-12-oxoheptadec-10-enoic acid. Arrow and inlet show CSP of exemplary peak. Arrows and inlets show CSP of exemplary peaks.
NMR measurements were performed in 3 mm tubes at 25° C. on a Bruker Avance III spectrometer operating at 600 MHz ^1H frequencies using H/N/C triple-resonance cryogenic probes. To confirm fatty acid binding, two-dimensional ^1H, ^15N heteronuclear single quantum correlation (HSQC) spectra were recorded of 200 μM ^15N-bOBP in 20 mM phosphate buffer pH 6.5, 50 mM NaCl, 1 mM β-mercaptoethanol and 10% (v/v) D20 alone or in presence of 1 mM and 2 mM fatty acid.

T2 sequence (O60603 21-784): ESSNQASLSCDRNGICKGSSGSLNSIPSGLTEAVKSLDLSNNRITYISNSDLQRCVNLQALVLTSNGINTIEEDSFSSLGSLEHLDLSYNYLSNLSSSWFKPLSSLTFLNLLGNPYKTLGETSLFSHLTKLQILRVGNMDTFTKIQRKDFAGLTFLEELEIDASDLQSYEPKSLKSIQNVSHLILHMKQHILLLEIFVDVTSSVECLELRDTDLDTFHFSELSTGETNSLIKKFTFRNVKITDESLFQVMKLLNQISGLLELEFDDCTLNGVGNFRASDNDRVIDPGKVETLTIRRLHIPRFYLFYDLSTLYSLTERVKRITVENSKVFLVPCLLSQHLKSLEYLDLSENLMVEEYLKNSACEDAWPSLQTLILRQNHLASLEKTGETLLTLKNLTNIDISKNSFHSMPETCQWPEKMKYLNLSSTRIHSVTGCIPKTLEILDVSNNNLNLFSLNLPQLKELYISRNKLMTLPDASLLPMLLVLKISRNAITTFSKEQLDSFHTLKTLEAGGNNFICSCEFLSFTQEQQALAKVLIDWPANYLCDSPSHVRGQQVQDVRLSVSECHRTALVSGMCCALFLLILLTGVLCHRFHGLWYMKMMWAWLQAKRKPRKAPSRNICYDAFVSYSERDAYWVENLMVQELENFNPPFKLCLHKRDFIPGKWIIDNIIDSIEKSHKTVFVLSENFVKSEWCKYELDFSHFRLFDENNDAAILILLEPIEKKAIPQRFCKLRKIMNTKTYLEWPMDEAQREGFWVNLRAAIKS

Row | Molecule | OT-II CD4 T cell number (CD4+ count) [1] | NFkB induction in HEK-hTLR2 (TLR2 activation) (human TLR2) | transepithelial electrical resistance (TEER) (16HBE cells) | Bronchoalveolar lavage (BAL) eosinophil numbers [2] | AHR to increasing doses of methacholine [2] | AHR effect compared with OBP alone ([2]; same model as E7) | chemical shift perturbations (CSP) in 1H,15N-HSQC spectra (15N-bOBP)
1 | OBP+FA: Lipoprotein complex of bOBP incubated with 5 fold molar excess of (E)-12-oxoheptadec-10-enoic acid, dialysed | prevented | even stronger effect than the cow SDE | stronger effect, at much lower concentration | prevented allergic asthma | significant effect; also recorded: prevented allergic asthma | slightly better than for OBP alone | 
2 | Bos d2+FA: Lipoprotein complex of His-Trx-Bos d2 with (E)-12-oxoheptadec-10-enoic acid | prevented | even stronger effect than the cow SDE | stronger effect, at much lower concentration |  |  |  | 
3 | CCCCCC(=O)/C=C/CCCCCCCCC(=O)O [FA, (E)-12-oxoheptadec-10-enoic acid] |  |  |  | does not have an effect | an effect on AHR |  | chemical shift perturbations (CSP) which is indicative for ligand binding
4 | OBP: Recombinant bovine odorant-binding protein, lipocalin family, without ligand (protein, listed as Bos taurus) AQEEEAEQNLSELSGPWRTVYIGSTNPEKIQENGPFRTYFRELVFDDEKGTVDFYFSVKRDGKWKNVHVKATKQDDGTYVADYEGQNVFKIVSLSRTHLVAHNINVDKHGQTTELTELFVKLNVEDEDLEKFWKLTEDKGIDKKNVVNFLENEDHPHPE |  | had an effect as well, but higher concentrations are needed |  | prevented allergic asthma | significant effect; also recorded: prevented allergic asthma |  | 
